Test results published in patent US20120009152A1, “NITRIC OXIDE DONORS FOR TREATMENT OF DISEASE AND INJURY” (priority 2002, published 2012).

Test system: rats subjected to embolic middle cerebral artery occlusion
Assay: Foot-fault test after embolic MCA occlusion
Assay type: in vivo, rat
Experimental: Male Wistar rats weighing 320 to 380 g were used in the present study. The middle cerebral artery (MCA) was occluded by placement of an embolus at the origin of the MCA.
Ischemic rats (n=9) were treated with the same volume of tap water as a control group. Functional tests were performed and body weight was measured before ischemia and at 4, 7, 14, 21, and 28 days after onset of MCA occlusion. All rats were killed 28 days after MCA occlusion. […] These rats were killed 1 hour after the last treatment for measurements of brain levels of cGMP. […] Experiments were also performed to examine brain PDE5, nonischemic rats and ischemic rats were killed at 2, 4, 24, 48, and 168 hours after the onset of ischemia (n=3 for each time point). Reverse transcription (RT)-polymerase chain reaction (PCR) was performed to detect PDE5 in brain tissue.
Rats were tested for placement dysfunction of forelimbs with the modified foot-fault test before ischemia and at 4, 7, 14, 21, and 28 days after embolic ischemia. Rats were set on an elevated hexagonal grid of different sizes and placed their paws on the wire while moving along the grid. With each weight-bearing step, the paw may fall or slip between the wire. The total number of steps (movement of each forelimb) that the rat used to cross the grid was counted, and the total number of foot-faults for each forelimb was recorded.

SMILES: CCCc1nn(C)c2c(=O)[nH]c(-c3cc(S(=O)(=O)N4CCN(C)CC4)ccc3OCC)nc12 [Sildenafil]
- % of Foot-Faults (Sildenafil 2 mg/kg, 2 h, 4 d after ischemia): 22.81 ± 3.1%
- % of Foot-Faults (Sildenafil 2 mg/kg, 2 h, 7 d): 15.2 ± 1.6 %
- % of Foot-Faults (Sildenafil 2 mg/kg, 2 h, 14 d): 13.2 ± 1.2 %
- % of Foot-Faults (Sildenafil 2 mg/kg, 2 h, 21 d): 9.1 ± 1.5 %
- % of Foot-Faults (Sildenafil 2 mg/kg, 2 h, 28 d): 8.2 ± 1.4%
- % of Foot-Faults (Sildenafil 2 mg/kg, 2 h group, Before Ischemia (baseline)): 1.1 ± 0.01%
- % of Foot-Faults (Sildenafil 2 mg/kg, 24 h, 4 d): 25.3 ± 3.8%
- % of Foot-Faults (Sildenafil 2 mg/kg, 24 h, 7 d): 14.4 ± 1.0 %
- % of Foot-Faults (Sildenafil 2 mg/kg, 24 h, 14 d): 10.0 ± 0.5 %
- % of Foot-Faults (Sildenafil 2 mg/kg, 24 h, 21 d): 9.0 ± 0.5 %
- % of Foot-Faults (Sildenafil 2 mg/kg, 24 h, 28 d): 5.3 ± 0.8 %
- % of Foot-Faults (Sildenafil 2 mg/kg, 24 h group, Before Ischemia (baseline)): 1.03 ± 0.03%
- % of Foot-Faults (Sildenafil 5 mg/kg, 2 h, 4 d): 17.9 ± 2.9%
- % of Foot-Faults (Sildenafil 5 mg/kg, 2 h, 7 d): 16.6 ± 1.4 %
- % of Foot-Faults (Sildenafil 5 mg/kg, 2 h, 14 d): 14.6 ± 2.1 %
- % of Foot-Faults (Sildenafil 5 mg/kg, 2 h, 21 d): 9.5 ± 1.6 %
- % of Foot-Faults (Sildenafil 5 mg/kg, 2 h, 28 d): 7.6 ± 1.4%
- % of Foot-Faults (Sildenafil 5 mg/kg, 2 h group, Before Ischemia (baseline)): 1.02 ± 0.02%
